Read-outs that look alike come from different tables or passages of the source. Marks after values point to notes of the source that are not given here.
How the values were obtained:
[1] = molecular target: T1, human GAL2 receptor (Homo sapiens, UniProt O43603); experiment: Radioligand binding at cloned human GAL2 receptor; conditions: pyrimidines, Tables 1-3, read-out: Ki (nM) GalR2
T1 construct: expressed in transfected cells
T1 sequence (O43603 1-387): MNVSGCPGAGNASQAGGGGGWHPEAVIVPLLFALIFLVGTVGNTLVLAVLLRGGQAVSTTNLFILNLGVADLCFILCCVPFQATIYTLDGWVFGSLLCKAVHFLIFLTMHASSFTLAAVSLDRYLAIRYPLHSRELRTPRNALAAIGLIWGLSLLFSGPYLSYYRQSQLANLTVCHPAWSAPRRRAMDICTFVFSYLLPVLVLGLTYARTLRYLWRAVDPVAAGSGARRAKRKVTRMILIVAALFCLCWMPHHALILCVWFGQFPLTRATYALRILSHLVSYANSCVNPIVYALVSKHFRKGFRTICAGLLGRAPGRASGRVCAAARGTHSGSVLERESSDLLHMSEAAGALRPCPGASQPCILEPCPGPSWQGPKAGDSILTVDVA
Experimental: (§1) The present invention provides for a method of determining the binding affinity of a GAL3 antagonist, wherein the GAL3 antagonist is dissolved in a “suitable solvent”. A “suitable solvent” means one which permits the measurement of binding affinity of the GAL3 antagonist to the human GAL3 receptor at concentrations less than 1 μM, preferably less than 100 nM. Examples of solvents include, but are not limited to, DMSO, ethanol, N,N-dimethylacetamide, or water. For indolones, the preferred solvent is 3% DMSO (final concentration in the assay). For pyrimidines, the preferred solvent is 1% ethanol/0.09% polypuronic acid F-127 (final concentration in the assay). For any other type of compounds, the preferred solvent is the solvent which permits the measurement of binding affinity of a GAL3 antagonist at the lowest concentration. Once a suitable solvent is ascertained for the binding assay of the human GAL3 receptor, the same solvent is used in assays to determine the binding affinity for instance, at the GAL1 receptor.
(§2) The binding properties of the pyrimidines of the present invention were evaluated at the cloned human galanin receptors, GAL1, GAL2, and GAL3, using protocols described herein.
(§3) The binding properties of the indolones of the present invention were evaluated at the cloned human galanin receptors, GAL1, GAL2, and GAL3, using protocols described herein.
(§4) LM(tk-) cells were stably transfected with the human GAL1 or GAL3 receptor. CHO cells were stably transfected with the human GAL2 receptor.
(§5) cDNAs for the human and rat GAL1, and human and rat GAL3 receptors were transfected with a G-418 resistant gene into the mouse fibroblast LM(tk-) cell line by a calcium phosphate transfection method (Cullen, 1967). Stably transfected cells were selected with G-418. Human and rat GAL2 receptors were similarly transfected into CHO cells.
(§6) Membranes were harvested from stably transfected LM(tk-) cells. Adherent cells were washed twice in ice-cold phosphate buffered saline (138 mM NaCl, 8.1 mM Na2HPO4, 2.5 mM KCl, 1.2 mM KH2PO4, 0.9 mM CaCl2, 0.5 mM MgCl2, pH 7.4) and lysed by sonication in ice-cold sonication buffer (20 mM Tris-HCl, 5 mM EDTA, pH 7.7). Large particles and debris were cleared by low speed centrifugation (200×g, 5 min, 4° C.). Membranes were collected from the supernatant fraction by centrifugation (32,000×g, 18 min, 4° C.), washed with ice-cold hypotonic buffer, and collected again by centrifugation (32,000×g, 18 min, 4° C.). The final membrane pellet was resuspended by sonication into a small volume of ice-cold binding buffer (−1 ml for every 5 plates: 10 mM NaCl, 20 mM HEPES, 0.22 mM KH2PO4, 1.26 mM CaCl2, 0.81 mM MgSO4, pH 7.4). Protein concentration was measured by the Bradford method (Bradford, 1976) using Bio-Rad Reagent, with bovine serum albumin as a standard. Membranes were held on ice for up to one hour and used fresh, or flash frozen and stored in liquid nitrogen. Membranes were prepared similarly from CHO cells.
(§7) Galanin Receptors: Binding assays were performed according to the following published methods: human GAL3 (PCT International Publication No. WO 98/15570), human GAL1 (PCT International Publication No. WO 95/2260) human GAL2 (PCT International Publication No. WO 97/26853).
(§8) Binding data were analyzed using nonlinear regression and statistical techniques available in the GraphPAD Prism package (San Diego, Calif.). Enzymatic assay data were derived from a standard curve of reference compound data.

[2] = molecular target: T2, human GAL3 receptor (Homo sapiens, UniProt O60755); experiment: Radioligand binding at cloned human GAL3 receptor; conditions: cloned human GAL3 receptor
T2 construct: expressed in transfected cells
T2 sequence (O60755 1-368): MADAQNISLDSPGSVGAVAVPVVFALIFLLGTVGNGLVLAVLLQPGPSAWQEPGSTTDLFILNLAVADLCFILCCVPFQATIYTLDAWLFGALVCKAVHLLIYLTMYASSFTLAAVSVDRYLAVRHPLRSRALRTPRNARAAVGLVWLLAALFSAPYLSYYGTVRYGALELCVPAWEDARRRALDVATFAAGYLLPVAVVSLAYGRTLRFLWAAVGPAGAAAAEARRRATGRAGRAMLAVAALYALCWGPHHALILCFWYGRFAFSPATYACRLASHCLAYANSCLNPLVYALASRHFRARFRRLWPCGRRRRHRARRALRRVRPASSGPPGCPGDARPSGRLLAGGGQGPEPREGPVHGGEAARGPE
Experimental: as §1, §2, §3, §4, §5, §6, §7, §8

[3] = molecular target: T3, human GAL1 receptor (Homo sapiens, UniProt P47211); experiment: Radioligand binding at cloned human GAL1 receptor; conditions: pyrimidines, Tables 1-3, read-out: Ki (nM) GalR1
T3 construct: expressed in transfected cells
T3 sequence (P47211 1-349): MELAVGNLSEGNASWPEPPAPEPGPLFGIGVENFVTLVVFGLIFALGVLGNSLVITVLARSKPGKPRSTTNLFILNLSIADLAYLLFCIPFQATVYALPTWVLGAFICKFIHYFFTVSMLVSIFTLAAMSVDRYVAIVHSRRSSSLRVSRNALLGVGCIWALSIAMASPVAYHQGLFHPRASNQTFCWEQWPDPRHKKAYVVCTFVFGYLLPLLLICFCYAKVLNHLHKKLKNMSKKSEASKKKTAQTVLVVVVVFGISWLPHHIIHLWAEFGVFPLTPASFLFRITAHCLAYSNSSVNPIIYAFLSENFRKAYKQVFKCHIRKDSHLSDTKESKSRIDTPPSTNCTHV
Experimental: as §1, §2, §3, §4, §5, §6, §7, §8

[4] = system: Male albino Sprague-Dawley rats; experiment: Rat Social Interaction Test (SIT); type: in vivo
Experimental: Rats were allowed to acclimate to the animal care facility for 5 days and were housed singly for 5 days prior to testing. Animals were handled for 5 minutes per day. The design and procedure for the Social Interaction Test was carried out as previously described by Kennett, et al. (1997). On the test day, weight matched pairs of rats (±5%), unfamiliar to each other, were given identical treatments and returned to their home cages. Animals were randomly divided into 5 treatment groups, with 5 pairs per group, and were given one of the following i.p. treatments: Example 92 (10, 30 or 100 mg/kg), vehicle (1 ml/kg) or chlordiazepoxide (5 mg/kg). Dosing was 1 hour prior to testing. Rats were subsequently placed in a white perspex test box or arena (54×37×26 cm), whose floor was divided up into 24 equal squares, for 15 minutes. An air conditioner was used to generate background noise and to keep the room at approximately 74° F. All sessions were videotaped using a JVC camcorder (model GR-SZ1, Elmwood Park, N.J.) with either TDK (HG ultimate brand) or Sony 30 minute videocassettes. All sessions were conducted between 1:00-4:30 P.M. Active social interaction, defined as grooming, sniffing, biting, boxing, wrestling, following and crawling over or under, was scored using a stopwatch (Sportsline model no. 226, 1/100 sec. discriminability). The number of episodes of rearing (animal completely raises up its body on its hind limbs), grooming (licking, biting, scratching of body), and face washing (i.e. hands are moved repeatedly over face), and number of squares crossed were scored. Passive social interaction (animals are lying beside or on top of each other) was not scored. All behaviors were assessed later by an observer who was blind as to the treatment of each pair. At the end.of each test, the box was thoroughly wiped with moistened paper towels.
Male albino Sprague-Dawley rats (Taconic Farms, N.Y.) were housed in pairs under a 12 hr light dark cycle (lights on at 0700 hrs.) with free access to food and water.
Example 92 was dissolved in 100% DMSO (Sigma Chemical Co., St. Louis, Mo.). Chlordiazepoxide (purchased from Sigma Chemical Co., St. Louis, Mo.) was dissolved in double distilled water. The vehicle consisted of 50% DMSO (v/v). All drug solutions were made up 10 minutes prior to injection and the solutions were discarded.
Example 34 was dissolved in 5% lactic acid, v/v. The vehicle consisted of 100% dimethylacetamide (DMA) and this was used to make up all drug solutions. All drug solutions were made up fresh each day and any unused solutions were discarded at the end of the test day. The volume of drug solution administered was 1 ml/kg.
The social interaction data (time interacting, rearing and squares crossed) were subjected to a randomized, one-way ANOVA and post hoc tests conducted using the Student-Newman-Keuls test. The data were subjected to a test of normality (Shapiro-Wilk test). The data were analyzed using the GBSTAT program, version 6.5 (Dynamics Microsystems, Inc., Silver Spring, Md., 1997). All data are presented as means ±S.E.M.

[5] = pyrimidines, Tables 1-3, read-out: Ki (nM) GalR3
[6] = pyrimidines, Table 3a, read-out: Ki (nM) Gal3
[7] = indolones, Table 4a, read-out: Ki (nM) Gal3

“N^2-[2-(1H-INDOL-3-YL)ETHYL]-N^2,N^4,N^4-TRIMETHYL-(2-NAPHTHYL)-6-(1-PIPERIDINYL)-2,4,6-PYRIMIDINETRIAMINE [Example 79]” showed a Ki [1] of 1660 nM, a Ki [2, 5] of 190 nM and a Ki [3] of 3800 nM.
Compound `CN(C)c1cc(Nc2ccc(Cl)cc2C(F)(F)F)nc(N2CCN(Cc3ccccc3)CC2)n1` [Example 239] has a Ki [2, 6] of 59 nM.
In the case of `CN(CCc1c[nH]c2ccccc12)c1nc(NCCc2ccccc2)cc(N2CCCCC2)n1` [Example 12], the Ki [1] is reported as 2000 nM, the Ki [2, 5] is reported as 322 nM and the Ki [3] is reported as > 5000 nM.
With `CN(C)c1cc(N[C@@H]2C[C@H]3CC[C@]2(C)C3(C)C)nc(N2CCN(Cc3ccccc3)CC2)n1` [Example 153] the Ki [2, 6] was 55 nM.
`CNC1=Nc2ccc(Cl)cc2C(c2ccccc2)=[N+]([O-])C1` [Chlordiazepoxide, chlordiazepoxide, reference compound] was tested, and the “Social Interaction (sec)” value ([4]; 5 mg/kg i.p., 1 hour before 15 min test, unfamiliar rats) was 188 ± 15^b sec and the “Social Interaction (sec)” value ([4]; 5 mg/kg p.o., one hour before test, unfamiliar cage mates in a familiar arena) was 122 ± 18^$ sec.
In the case of `C[C@H]1CC2CC([C@@H]1Nc1cc(N(C)C)nc(Nc3ccccc3)n1)C2(C)C` (some centres unmarked) [Example 71], the Ki [1] is reported as 944 nM and the Ki [2, 5] is reported as 72 nM.
Compound `O=C1/C(=N\c2ccc(-c3cccc(C(F)(F)F)c3)cc2)c2ccccc2N1c1ccccc1` [Example 305, (3Z)-1-PHENYL-3-{[3′-(TRIFLUOROMETHYL)[1,1′-BIPHENYL]-4-YL]IMINO}-1,3-DIHYDRO-2H-INDOL-2-ONE] has a Ki [2, 7] of 638 nM.
For `O=C1/C(=N\c2ccc(Oc3ccccc3)cc2)c2ccccc2N1c1ccsc1` [Example 268, 3Z)-3-[(4-PHENOXYPHENYL)IMINO]-1-(3-THIENYL)-1,3-DIHYDRO-2H-INDOL-2-ONE], the Ki [2, 7] was 57 nM.
`CN1C(=O)c2ccc(/N=C3\C(=O)N(c4ccccc4)c4ccccc43)cc2C1=O` [Example 110, 2-METHYL-5-[(2-OXO-1-PHENYL-1,2-DIHYDRO-3H-INDOL-3-YLIDENE)AMINO]-2H—ISOINDOLE-1,3(2H)-DIONE] gave a Ki [2, 7] of 138 nM.
`CN(C)c1cc(Nc2ccccc2Cl)nc(N2CCN(c3ccccn3)CC2)n1` [Example 195] showed a Ki [2, 6] of 388 nM.
`CN(C)c1cc(NC23CC4CC(CC2C4)C3)nc(N2CCN(Cc3ccccc3)CC2)n1` [Example 137] was tested, and the Ki [2, 6] was 124 nM.
